Results from patent US5272144A, “Aryloxy-, arylthio-, heteroaryloxy-, heteroarylthio-alkenylene derivatives of amines and pharmaceutical use” (Farmitalia Carlo Erba s.r.l., priority 1988, dated 1993).

Key:
[1] = test system: reserpine-induced blepharospasm; assay: prevention of reserpine-induced blepharospasm in mice (antidepressant activity); format: in vivo; conditions: Mus musculus, po, 1 h, per os, 30 min before reserpine 2.4 mg/kg endoperitoneally, blepharospasm scored one hour after reserpine, read-out: BLEPH/ED50 (blepharospasm)
Procedure: (§1) The antidepressant activity was evaluated for example in mice on the basis of the prevention of reserpine-induced blepharospasm and hypothermia.

[2] = test system: reserpine-induced hypothermia; assay: prevention of reserpine-induced hypothermia in mice (antidepressant activity); format: in vivo; conditions: Mus musculus, po, 4 h, per os, 30 min before reserpine 2.4 mg/kg endoperitoneally, rectal temperature four hours after reserpine, read-out: HYPOTH/ED50 (hypothermia)
Procedure: as §1

Compound | ED50 [1] | ED50 [2]
CNC/C=C(\Oc1ccccc1)c1ccc2c(c1)OCO2 [H H 3,4-OCH2 O H CH3 Z, α-phenoxy-α-(3,4-methylenedioxyphenyl)-β-methylaminomethyl-ethylene] | 2.2 mg/kg | 2.4 mg/kg
CN(C)C/C=C(\Oc1ccccc1)c1ccccc1 [H H H H CH3 CH3 Z, (Z)α-phenoxy-α-phenyl-β-dimethylaminomethyl-ethylene] | 0.5 mg/kg | 1.4 mg/kg
CNC/C=C(\Oc1ccccc1Cl)c1ccccc1 [H 2-Cl H H H CH3 Z, α-(2-chlorophenoxy)-α-phenyl-β-methylaminomethyl-ethylene] | 0.7 mg/kg | 0.2 mg/kg
CNC/C=C(/Oc1ccccc1)c1ccc2c(c1)OCO2 [H H 3,4-OCH2 O H CH3 E, α-phenoxy-α-(3,4-methylenedioxyphenyl)-β-methylaminomethyl-ethylene] | 1 mg/kg | 1.4 mg/kg
CNC/C=C(\Oc1ccccc1)c1ccccc1 [H H H H H CH3 Z, (Z)α-phenoxy-α-phenyl-β-methylaminomethyl-ethylene] | 0.8 mg/kg | 0.8 mg/kg
CNC/C=C(\Oc1ccc(Cl)c(Cl)c1)c1ccccc1 [3-Cl 4-Cl H H H CH3 Z, α-(3,4-dichlorophenoxy)-α-phenyl-β-methylaminomethyl-ethylene] | 1.2 mg/kg | 1.3 mg/kg
CN(C)CCCN1c2ccccc2CCc2ccccc21 [IMIPRAMINE, reference compound] | 24.1 mg/kg | 10.2 mg/kg
CNC/C=C(/Oc1ccccc1Cl)c1ccccc1 [H 2-Cl H H H CH3 E, α-(2-chlorophenoxy)-α-phenyl-β-methylaminomethyl-ethylene] | 1.1 mg/kg | 1.2 mg/kg
